Test results reported in PubChem BioAssay (NCI).
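48-hour exposure; five concentrations; linearly interpolated endpoints. GI50: concentration for 50% inhibition of growth. TGI is the concentration that stops growth completely.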

Experiments:
Assay in all cases: NCI tumour cell line growth inhibition, 48 h
[1] = system: OVCAR-4 ovarian
[2] = system: TK-10 renal
[3] = system: MALME-3M melanoma
[4] = system: PC-3 prostate
[5] = system: MOLT-4 leukemia
[6] = system: KM12 colon
[7] = system: NCI/ADR-RES ovarian
[8] = system: OVCAR-3 ovarian
[9] = system: M14 melanoma
[10] = system: UO-31 renal

| SMILES | TGI [1] [µM] | TGI [2] [µM] | TGI [3] [µM] | TGI [4] [µM] | TGI [5] [µM] | TGI [6] [µM] | TGI [7] [µM] | TGI [8] [µM] | TGI [9] [µM] | TGI [10] [µM] | GI50 [5] [µM] | GI50 [8] [µM] |
| --- | --- | --- | --- | --- | --- | --- | --- | --- | --- | --- | --- | --- |
| CC1=NC(=N)N=C(C)C1N=Nc1ccc2nc(C)[nH]c2c1 (stereo not given) | > 100 | > 100 | > 100 | > 100 | > 100 | > 100 | > 100 | > 100 | > 100 | – | – | – |
| O=C(/C=C/c1ccccc1)c1cc(CN2CCOCC2)c(O)c(CN2CCOCC2)c1 | – | 55.6 | – | 38.4 | 75.6 | 33.1 | > 100 | 29.4 | 43.2 | 31.3 | – | – |
| O=c1c2[nH]cnc2n(-c2ccccc2)c(=S)n1-c1ccccc1 | > 100 | > 100 | – | > 100 | > 100 | > 100 | > 100 | > 100 | > 100 | > 100 | – | – |
| NC1CCC2(O)c3ccccc3C2C1 (stereo not given) | > 100 | > 100 | > 100 | – | > 100 | > 100 | – | – | > 100 | > 100 | – | – |
| O=C(/C=C\c1ccccc1)Oc1ccc(/C=C2\CCC/C(=C\c3ccc(OC(=O)/C=C\c4ccccc4)cc3)C2=O)cc1 | > 100 | > 100 | – | > 100 | > 100 | > 100 | > 100 | > 100 | > 100 | > 100 | – | – |
| CCC12CCC[C@@]13C=C[C@H](O3)C(C)(C)C2=O (stereo not given in full) | > 100 | > 100 | > 100 | – | > 100 | – | – | > 100 | > 100 | > 100 | – | – |
| CCCCCCCCCCCC1=C(O)C(=O)C(CC2=C(O)C(=O)C(CCCCCCCCCCC)=C(O)C2=O)=C(O)C1=O | > 100 | > 100 | > 100 | > 100 | > 100 | > 100 | > 100 | – | > 100 | > 100 | – | – |
| Nc1c(C(=O)O)c2ccc([N+](=O)[O-])cc2c(=O)n1-c1nc2ccccc2s1 | > 100 | – | > 100 | > 100 | > 100 | > 100 | > 100 | > 100 | > 100 | > 100 | – | – |
| CCOC(=O)C(Cc1ccc(N=NN(C)C)cc1)NC(=O)CC1c2ccccc2-c2ccccc21 (stereo not given) | > 100 | > 100 | > 100 | – | > 100 | > 100 | – | > 100 | > 100 | > 100 | – | – |
| COc1ccc2oc(=O)c(-c3cc4c(c(C)n3)c(=O)oc3ccc(OC)cc34)cc2c1 | – | > 100 | – | > 100 | > 100 | > 100 | > 100 | > 100 | > 100 | > 100 | – | – |
| O=[N+]([O-])/C=C/c1cc(Cl)c(/C=C/[N+](=O)[O-])cc1Cl | – | 2.9 | – | 9.15 | – | > 24.6 | > 25 | 5.04 | 4.37 | – | – | – |
| CCc1c(O)nc(Nc2nc3ccccc3[nH]2)[nH]c1=O | > 100 | > 100 | > 100 | > 100 | – | – | > 100 | > 100 | > 100 | > 100 | – | – |
| [C-]#[O+].[Cl][Sn]([Cl])[Cl].[Cl][Sn]([Cl])[Cl].[Pt].c1cnc2c(c1)ccc1cccnc12 | > 27.4 | – | > 100 | – | > 30.9 | > 100 | 10.1 | > 69.8 | – | > 33.8 | – | – |
| O=C(Nc1cccc2ccccc12)c1cc2ccccc2oc1=O | > 100 | – | > 100 | > 100 | > 100 | > 100 | > 100 | > 100 | > 100 | – | – | – |
| CC1CC(c2ccccc2)=Nc2ccccc2S1 (stereo not given) | > 100 | > 100 | – | – | > 100 | > 100 | – | – | > 100 | > 100 | – | – |
| COc1cccc(/C=N/[N-]C(N)=O)c1[O-].[Cu+2].[OH3+] | 32.3 | – | 28.8 | – | 38.3 | 28 | – | 22.8 | – | 31.7 | 10.1 | 10.4 |
| COc1c(OC2OC(CO)C(O)C(O)C2O)cc2c(c1OC)-c1ccc(OC)c(=O)cc1C(NC(C)=O)CC2 (stereo not given) | > 100 | > 100 | > 100 | – | > 100 | > 100 | – | > 100 | > 100 | > 100 | – | – |
| Cc1nc(C(=Nc2ccc(Br)cc2)Nn2cnnc2)no1 | > 100 | – | > 100 | > 100 | > 100 | > 100 | > 100 | > 100 | > 100 | > 100 | – | – |
| O=C(O)CCCc1ccc2c(c1)C(C(=O)O)CC2 (stereo not given) | > 100 | > 100 | > 100 | > 100 | > 100 | > 100 | > 100 | – | > 100 | > 100 | – | – |
| CC[C@]1(c2ccc3c(c2)OCO3)C=[N+]([O-])O[C@H](OC2CCCC2(c2ccccc2)c2ccccc2)[C@@H]1OC(C)=O (stereo not given in full) | 10.1 | 11.6 | – | 13.1 | > 19.8 | 3.62 | 4.88 | 3.42 | 4.84 | 5.21 | – | – |
| COc1ccc(C(=CCC(C)C2CCC3[C@@H]4C(OC(C)=O)CC5CC(OC(C)=O)CC[C@]5(C)C4CC(OC(C)=O)[C@]23C)c2ccc(OC)cc2)cc1 (stereo not given in full) | > 100 | > 100 | – | > 100 | > 100 | > 100 | > 100 | – | > 100 | > 100 | – | – |
| O=C(O)C1CCC(=O)N1C(=O)COc1cc(Cl)c(Cl)cc1Cl (stereo not given) | > 100 | > 100 | – | – | – | > 100 | – | > 100 | > 100 | > 100 | – | – |
| COc1cc(C2c3cc4c(cc3[C@@H](Nc3ccc(F)cc3)C3COC[C@H]23)OCO4)cc(OC)c1O (stereo not given in full) | > 25 | > 25 | – | > 25 | 0.993 | > 25 | > 25 | – | > 25 | 4.57 | – | – |
| CC1(C)N=C(/C(Cl)=[N+](/[O-])C(=O)c2ccc(Cl)cc2)C(C)(C)N1O | 68.5 | 38.8 | 35.9 | 37.5 | – | > 100 | 63.8 | 32.4 | 32.1 | > 100 | – | – |
| CC(C)C(NCc1c2ccccc2[n+](C)c2ccccc12)C(=O)O (stereo not given) | 20.7 | 21.3 | 19.1 | – | 7.86 | 18.7 | – | 16.9 | 16 | 21.7 | – | – |
